Measured values as given in patent publication US12612368B2 (Remedy Plan, Inc., priority 2019, dated 2026).
Like-named read-outs stand apart in the source and are kept apart here.

Assays:
NAMPT = molecular target: T1, NAMPT (Homo sapiens, UniProt P43490); assay: NAMPT Activity Assay (Abcam #ab221819); assay type: biochemical; settings: purified NAMPT, two-step reaction, OD450 nm; percent inhibition vs no drug; compound concentration not stated
T1 construct: purchased Abcam ab221819

MV-4-11 cells = assay: Cell viability in MV-4-11 cells (CellTiter Glo2); assay type: cell-based; settings: Homo sapiens, MV4-11, 96 h, 8-point dose response, 4 days
Description: Approximately 10,000 MV-4-11 cells per well of a 96-well plate were treated with DMSO (no drug control) or each compound in Tables E1 and E2 in an 8-point dose response for 4 days, Cell viability was measured using CellTiter Glo2. The ICse of each compound was determined using CDD Vault.

[1] = CellTiter Glo2 (Table E2), read-out: MV-4-11 Cell Viability, MV-4-11 IC50
[2] = CellTiter Glo2 (Table E1), read-out: MV-4-11 IC50

T1 sequence (P43490 whole entry): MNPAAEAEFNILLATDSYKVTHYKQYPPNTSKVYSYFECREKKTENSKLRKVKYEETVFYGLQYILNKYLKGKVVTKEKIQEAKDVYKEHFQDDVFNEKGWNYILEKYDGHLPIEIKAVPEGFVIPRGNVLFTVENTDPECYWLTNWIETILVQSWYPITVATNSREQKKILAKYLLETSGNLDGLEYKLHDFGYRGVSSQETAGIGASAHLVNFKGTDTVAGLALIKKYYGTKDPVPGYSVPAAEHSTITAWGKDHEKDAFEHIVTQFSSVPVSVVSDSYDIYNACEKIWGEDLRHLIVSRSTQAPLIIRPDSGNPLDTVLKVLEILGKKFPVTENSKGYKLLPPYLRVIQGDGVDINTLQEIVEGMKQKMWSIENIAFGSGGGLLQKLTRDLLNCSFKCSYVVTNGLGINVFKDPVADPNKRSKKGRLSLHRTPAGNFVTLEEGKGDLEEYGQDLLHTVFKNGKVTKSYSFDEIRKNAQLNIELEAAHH

Row | Compound | NAMPT Inhibition Code (NAMPT) | IC50 (MV-4-11 cells; [1]) | IC50 (MV-4-11 cells; [2])
1 | CC(=O)N(CC(F)F)c1ccc(-c2ccc(C(=O)NCc3cccnc3)cn2)cc1Cl [Compound I-619, 6-[4-[Acetyl(2,2-difluoroethyl)amino]-3-chloro-phenyl]-N-(3-pyridylmethyl)pyridine-3-carboxamide] | C (C = ≥66% inhibition) | 67.2 nM | –
2 | CC(=O)N(CC1CC1)c1ccc(-c2ccc(C(=O)NCc3cccnc3C)cn2)cc1 [Compound I-500, 6-[4-[Acetyl(cyclopropylmethyl)amino]phenyl]-N-[(2-methyl-3-pyridyl)methyl]pyridine-3-carboxamide] | A (A = <33% inhibition) | 2280 nM | –
3 | CC(=O)N(CC(F)F)c1ccc(-c2ccc(C(=O)NCc3cccnc3)cn2)cc1 [Compound I-631, 6-[4-[Acetyl(2,2-difluoroethyl)amino]phenyl]-N-(3-pyridylmethyl)pyridine-3-carboxamide] | B (B = ≥33 to <66% inhibition) | 1580 nM | –
4 | CCC(=O)N(C)c1ccc(-c2ccc(C(=O)NCc3ccc(C)nc3C)cn2)cc1 [Compound I-394, N-[(2,6-dimethyl-3-pyridyl)methyl]-6-[4-[methyl(propanoyl)amino]phenyl]pyridine-3-carboxamide] | A (A = <33% inhibition) | – | 3520 nM
5 | CC(=O)N(CC1CC1)c1ccc(-c2ccc(C(=O)NCc3ccc(C)nc3C)cn2)cc1C [Compound I-489, 6-[4-[Acetyl(cyclopropylmethyl)amino]-3-methyl-phenyl]-N-[(2,6-dimethyl-3-pyridyl)methyl]pyridine-3-carboxamide] | A (A = <33% inhibition) | 2220 nM | –
6 | CC(=O)N(CC1COC1)c1ccc(-c2ccc(C(=O)NCc3cccnc3C)cn2)cc1C [Compound I-510, 6-[4-[Acetyl(oxetan-3-ylmethyl)amino]-3-methyl-phenyl]-N-[(2-methyl-3-pyridyl)methyl]pyridine-3-carboxamide] | A (A = <33% inhibition) | 5910 nM | –
7 | CCCN(C(=O)CC)c1ccc(-c2ccc(C(=O)NCc3cccnc3)cn2)cc1 [Compound I-410, 6-[4-[propanoyl(propyl)amino]phenyl]-N-(3-pyridylmethyl)pyridine-3-carboxamide] | B (B = ≥33 to <66% inhibition) | – | 119 nM
8 | CC(=O)N(CC1CC1)c1ccc(-c2ccc(C(=O)NCc3cccnc3)cn2)cc1 [Compound I-421, 6-[4-[acetyl(cyclopropylmethyl)amino]phenyl]-N-(3-pyridylmethyl)pyridine-3-carboxamide] | B (B = ≥33 to <66% inhibition) | – | 117 nM
9 | CC(=O)N(CC1CC1)c1ccc(-c2ccc(C(=O)NCc3cccnc3)cn2)cc1C [Compound I-609, 6-[4-[Acetyl(cyclopropylmethyl)amino]-3-methyl-phenyl]-N-(3-pyridylmethyl)pyridine-3-carboxamide] | C (C = ≥66% inhibition) | 13.5 nM | –
10 | CCc1cc(-c2ccc(C(=O)NCc3cccnc3)cn2)ccc1N(C)C(C)=O [Compound I-605, 6-[4-[Acetyl(methyl)amino]-3-ethyl-phenyl]-N-(3-pyridylmethyl)pyridine-3-carboxamide] | B (B = ≥33 to <66% inhibition) | 351 nM | –
11 | CC(=O)N(CC1CC1)c1ccc(-c2ccc(C(=O)Nc3ccc4nccn4c3)cn2)cc1Cl [Compound I-681, 6-[4-[Acetyl(cyclopropylmethyl)amino]-3-chloro-phenyl]-N-imidazo[1,2-a]pyridin-6-yl-pyridine-3-carboxamide] | C (C = ≥66% inhibition) | 1.31 nM | –
12 | COC(=O)NCCC(=O)N(C)c1ccc(-c2ccc(C(=O)NCc3cccnc3C)cn2)cc1C [Compound I-501, Methyl N-[3-[N,2-dimethyl-4-[5-[(2-methyl-3-pyridyl)methylcarbamoyl]-2-pyridyl]anilino]-3-oxo-propyl]carbamate] | A (A = <33% inhibition) | 1830 nM | –
13 | CC(=O)N(CC1CC1)c1ccc(-c2ccc(C(=O)NCc3ccnc(N)c3)cn2)cc1Cl [Compound I-674, 6-[4-[Acetyl(cyclopropylmethyl)amino]-3-chloro-phenyl]-N-[(2-amino-4-pyridyl)methyl]pyridine-3-carboxamide] | B (B = ≥33 to <66% inhibition) | 350 nM | –
14 | CCCCN(C(C)=O)c1ccc(-c2ccc(C(=O)NCc3cccnc3)cn2)cc1 [Compound I-411, 6-[4-[acetyl(butyl)amino]phenyl]-N-(3-pyridylmethyl)pyridine-3-carboxamide] | B (B = ≥33 to <66% inhibition) | – | 125 nM
15 | CC(=O)N(CC1CC1)c1ccc(-c2ccc(C(=O)NCc3cccnc3C)cn2)cc1C [Compound I-488, 6-[4-[Acetyl(cyclopropylmethyl)amino]-3-methyl-phenyl]-N-[(2-methyl-3-pyridyl)methyl]pyridine-3-carboxamide] | A (A = <33% inhibition) | 2820 nM | –
16 | CC(=O)N(c1ccc(-c2ccc(C(=O)NCc3cccnc3)cn2)cc1F)C(C)C [Compound I-626, 6-[4-[Acetyl(isopropyl)amino]-3-fluoro-phenyl]-N-(3-pyridylmethyl)pyridine-3-carboxamide] | C (C = ≥66% inhibition) | 23.7 nM | –
17 | CC(=O)N(CC1CC1)c1ccc(-c2ccc(C(=O)NCc3cncc(F)c3)cn2)cc1Cl [Compound I-690, 6-[4-[Acetyl(cyclopropylmethyl)amino]-3-chloro-phenyl]-N-[(5-fluoro-3-pyridyl)methyl]pyridine-3-carboxamide] | C (C = ≥66% inhibition) | 336 nM | –
18 | CC(C)N(C(=O)C(F)F)c1ccc(-c2ccc(C(=O)NCc3cccnc3)cn2)cc1Cl [Compound I-611, 6-[3-chloro-4-[(2,2-difluoroacetyl)-isopropyl-amino]phenyl]-N-(3-pyridylmethyl)pyridine-3-carboxamide] | C (C = ≥66% inhibition) | 3.01 nM | –
19 | CCC(=O)N(C)c1ccc(-c2ccc(C(=O)NCc3ccc(NCCN)nc3)cn2)cc1C [Compound I-527, N-((6-((2-aminoethyl)amino)pyridin-3-yl)methyl)-6-(3-methyl-4-(N-methylpropionamido)phenyl)nicotinamide] | A (A = <33% inhibition) | 787 nM | –
20 | CCC(=O)N(C)c1ccc(-c2ccc(C(=O)NCc3ccc(F)nc3C)cn2)cc1 [Compound I-390, N-[(6-fluoro-2-methyl-3-pyridyl)methyl]-6-[4-[methyl(propanoyl)amino]phenyl]pyridine-3-carboxamide] | A (A = <33% inhibition) | – | 4260 nM
21 | CCC(=O)N(C)c1ccc(-c2ccc(C(=O)NCc3cccnc3C(F)(F)F)cn2)cc1C [Compound I-511, 6-[3-Methyl-4-[methyl(propanoyl)amino]phenyl]-N-[[2-(trifluoromethyl)-3-pyridyl]methyl]pyridine-3-carboxamide] | A (A = <33% inhibition) | 7070 nM | –
22 | CCC(=O)N(C)c1ccc(-c2ccc(C(=O)NCc3ccc(C)nc3)cn2)cc1C [Compound I-450] | B (B = ≥33 to <66% inhibition) | 7630 nM | –
23 | CCC(=O)N(C)c1ccc(-c2ccc(C(=O)NCc3ccc(F)nc3)cn2)cc1 [Compound I-393, N-[(6-fluoro-3-pyridyl)methyl]-6-[4-[methyl(propanoyl)amino]phenyl]pyridine-3-carboxamide] | A (A = <33% inhibition) | – | > 30000 nM
24 | CC(=O)N(CC1COC1)c1ccc(-c2ccc(C(=O)NCc3cccnc3)cn2)cc1Cl [Compound I-620, 6-[4-[Acetyl(oxetan-3-ylmethyl)amino]-3-chloro-phenyl]-N-(3-pyridylmethyl)pyridine-3-carboxamide] | C (C = ≥66% inhibition) | 8.11 nM | –
25 | CC(=O)N(CC1CC1)c1ccc(-c2ccc(C(=O)NCc3ccc(N)nc3)cn2)cc1Cl [Compound I-677, 6-[4-[Acetyl(cyclopropylmethyl)amino]-3-chloro-phenyl]-N-[(6-amino-3-pyridyl)methyl]pyridine-3-carboxamide] | C (C = ≥66% inhibition) | 2.91 nM | –
26 | CC(=O)N(CC1CC1)c1ccc(-c2ccc(C(=O)Nc3ccn4ccnc4c3)cn2)cc1Cl [Compound I-687, 6-[4-[Acetyl(cyclopropylmethyl)amino]-3-chloro-phenyl]-N-imidazo[1,2-a]pyridin-7-yl-pyridine-3-carboxamide] | A (A = <33% inhibition) | 261 nM | –
27 | CCOC(=O)NCCC(=O)N(C)c1ccc(-c2ccc(C(=O)NCc3cccnc3C)cn2)cc1C [Compound I-491, Ethyl N-[3-[N,2-dimethyl-4-[5-[(2-methyl-3-pyridyl)methylcarbamoyl]-2-pyridyl]anilino]-3-oxo-propyl]carbamate] | A (A = <33% inhibition) | 1830 nM | –
28 | CC(=O)N(c1ccc(-c2ccc(C(=O)NCc3cccnc3)cc2)cc1Cl)C(C)C [Compound I-597, 4-[4-[Acetyl(isopropyl)amino]-3-chloro-phenyl]-N-(3-pyridylmethyl)benzamide] | C (C = ≥66% inhibition) | 21.6 nM | –
29 | CC(=O)N(CC(C)C)c1ccc(-c2ccc(C(=O)NCc3cccnc3C)cn2)cc1C [Compound I-454, 6-[4-[acetyl(isobutyl)amino]-3-methyl-phenyl]-N-[(2-methyl-3-pyridyl)methyl]pyridine-3-carboxamide] | A (A = <33% inhibition) | 2140 nM | –
30 | CC(=O)N(CC(C)C)c1ccc(-c2ccc(C(=O)NCc3cccnc3C)cn2)cc1 [Compound I-467, 6-[4-[Acetyl(isobutyl)amino]phenyl]-N-[(2-methyl-3-pyridyl)methyl]pyridine-3-carboxamide] | A (A = <33% inhibition) | 4340 nM | –
